Data published in ChEMBL document CHEMBL1938240, “Enzymatic transformation of caffeic acid with enhanced cyclooxygenase-2 inhibitory activity” (Bioorg Med Chem Lett, 2012).

biological target: T1, Prostaglandin G/H synthase 2 (Homo sapiens, UniProt P35354); assay: Inhibition of COX2 assessed as inhibition of PGE2 production using arachidonic acid as substrate after 10 mins by ELISA
T1 sequence (P35354 whole entry): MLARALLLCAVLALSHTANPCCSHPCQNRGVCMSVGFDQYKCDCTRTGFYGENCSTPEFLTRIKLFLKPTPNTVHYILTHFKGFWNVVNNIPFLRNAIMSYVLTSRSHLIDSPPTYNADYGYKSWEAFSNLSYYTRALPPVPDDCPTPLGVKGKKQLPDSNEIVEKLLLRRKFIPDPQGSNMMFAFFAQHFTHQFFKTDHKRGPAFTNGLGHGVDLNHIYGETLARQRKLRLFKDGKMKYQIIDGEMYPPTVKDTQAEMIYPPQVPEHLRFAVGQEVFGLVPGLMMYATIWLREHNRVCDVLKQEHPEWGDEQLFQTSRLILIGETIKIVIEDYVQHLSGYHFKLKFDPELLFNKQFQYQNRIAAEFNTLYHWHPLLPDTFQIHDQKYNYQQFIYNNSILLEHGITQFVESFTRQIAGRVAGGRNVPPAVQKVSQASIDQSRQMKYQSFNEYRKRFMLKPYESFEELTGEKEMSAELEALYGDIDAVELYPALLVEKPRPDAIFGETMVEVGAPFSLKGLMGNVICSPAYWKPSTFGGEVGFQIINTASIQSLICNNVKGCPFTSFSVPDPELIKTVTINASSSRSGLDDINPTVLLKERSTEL

Row | SMILES | IC50 [µM]
1 | O=C(O)/C=C/c1ccc2c(c1)O[C@H](c1cc(O)cc(O)c1)[C@H](C(=O)O)O2 [CAFFEICINIC ACID] | 7.5
2 | O=C(O)/C=C/C12C=C(O)C(=O)C=C1C(=O)C1=Cc3cc(O)c(O)cc3O[C@@H](c3ccc(O)c(O)c3)[C@@H]12 (relative stereo) | 9.8
3 | O=C1O[C@@H](c2ccc(O)c(O)c2)[C@H](C(=O)O)/C1=C\c1ccc(O)c(O)c1 [PHELLINSIN A] | 42.6
4 | O=C(O)/C=C/c1ccc2c(c1)O[C@@H](C(=O)O)[C@@H](c1ccc(O)c(O)c1)O2 (relative stereo) | 52.6
